Test results published in ChEMBL document CHEMBL1140491, “Amino-caprolactam derivatives as gamma-secretase inhibitors” (Bioorg Med Chem Lett, 2007).

Experiments:
[1] = Drug level in Tg2576 mouse plasma at 200 µmol/kg, po after 3 hrs
[2] = Ratio of drug level in brain to plasma in Tg2576 mouse at 200 mg/kg, po after 3 hrs
[3] = Drug level in Tg2576 mouse brain at 200 µmol/kg, po after 3 hrs; conditions: read-out: Drug uptake

Row | Compound | concentration at 3 h [1] | Kp at 3 h [2] | concentration at 3 h [3]
1 | CN(C)c1ccc(CN([C@@H]2CCCCNC2=O)S(=O)(=O)c2ccc(Cl)cc2)cc1 | 1600 nM | 2.8 | 4200 nM
2 | COc1ccc(CN([C@@H]2CCCCNC2=O)S(=O)(=O)c2ccc(Cl)cc2)cc1 | 280 nM | 7 | 2200 nM
